One may read the Ki as a dissociation constant, usually derived from enzyme kinetics or from competition with a known ligand. The term IC50 denotes the concentration at which inhibition is half-maximal.

Each structure is given as a SMILES string. Where two headings read alike, the source gives them in different places.

Results on one compound are retold here after PMC6264278, “Corydaline Inhibits Multiple Cytochrome P450 and UDP-Glucuronosyltransferase Enzyme Activities in Human Liver Microsomes” (Molecules, 2011).

One data set has as its target T1, CYP2C8 (Homo sapiens, UniProt P10632).
T1 construct: using pooled human liver microsomes; tissue BD Gentest Co. H161; host or cells: pooled human liver microsomes
T1 sequence (P10632 1-490): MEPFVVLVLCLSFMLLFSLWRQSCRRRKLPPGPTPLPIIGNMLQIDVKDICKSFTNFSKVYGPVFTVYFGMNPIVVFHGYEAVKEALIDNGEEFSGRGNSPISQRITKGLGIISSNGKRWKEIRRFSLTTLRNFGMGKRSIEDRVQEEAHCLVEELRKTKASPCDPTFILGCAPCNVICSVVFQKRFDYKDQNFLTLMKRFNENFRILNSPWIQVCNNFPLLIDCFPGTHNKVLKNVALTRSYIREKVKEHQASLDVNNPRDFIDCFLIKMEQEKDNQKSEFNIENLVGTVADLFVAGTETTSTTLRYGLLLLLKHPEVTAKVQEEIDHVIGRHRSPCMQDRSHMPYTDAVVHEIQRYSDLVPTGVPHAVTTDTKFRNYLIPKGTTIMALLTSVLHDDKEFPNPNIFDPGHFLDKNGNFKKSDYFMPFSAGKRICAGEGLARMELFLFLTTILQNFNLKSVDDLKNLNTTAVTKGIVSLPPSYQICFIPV
The data set is described as follows: CYP2C8 amodiaquine N-deethylation inhibition, cocktail assay in pooled human liver microsomes. It counts as in vitro ADME. Conditions: 2.5 μM amodiaquine, no inhibition at 200 μM of corydaline; for IC50 no preincubation, CYP2C8 amodiaquine N-deethylation: pooled human liver microsomes (H161). The procedure: (§1) Phenacetin O-deethylase, coumarin 7-hydroxylase, amodiaquine N-deethylase, diclofenac 4-hydroxylase, S-mephenytoin 4-hydroxylase, bufuralol hydroxylase, and midazolam 1’-hydroxylase activities were determined as probe activities for CYP1A2, CYP2A6, CYP2C8, CYP2C9, CYP2C19, CYP2D6, and CYP3A4, respectively, using cocktail incubation and liquid chromatography-tandem mass spectrometry (LC/MS/MS). The incubation mixtures were prepared in a total volume of 200 μL, as follows: pooled human liver microsomes (0.25 mg/mL), 1.3 mM NADPH, 3.3 mM MgCl2, 50 mM potassium phosphate buffer (pH 7.4), and a cocktail of probe substrates and various concentrations of corydaline (1−200 μM). The substrates were used at concentrations approximately equal to their respective Km values: 50 μM phenacetin, 2.5 μM coumarin, 2.5 μM amodiaquine, 10 μM diclofenac, 100 μM S-mephenytoin, 5 μM bufuralol, and 2.5 μM midazolam. After a 3-min pre-incubation period at 37 °C, the reactions were initiated by addition of an NADP generating system and incubated for 20 min at 37 °C in a shaking water bath. After incubation, the reaction was stopped by placement of the tubes on ice and addition of 100 μL of ice-cold methanol containing internal standards (^13C2,^15N-acetaminophen for acetaminophen and N-desethylamodiaquine, d5-7-hydroxycoumarin for 7-hydroxycoumarin, ^13C6-4-hydroxydiclofenac for 4-hydroxydiclofenac, d3-4-hydroxy-mephenytoin for 4-hydroxymephenytoin and hydroxymidazolam, d9-1-hydroxybufuralol for 1-hydroxybufuralol). The incubation mixtures were then centrifuged at 13,000 × g for 5 min. All incubations were performed in triplicate and the mean values were used. […] The reaction was started by addition of a cocktail of CYP probe substrates.
All 7 metabolites produced from the cocktail of CYP isoform-specific substrates were simultaneously determined by LC/MS/MS [25]. […] Quantification was performed by selected reaction monitoring (SRM) of the [M+H]^+ ion and the related product ion for each metabolite. […]

A further data set has as its target T2, CYP2C19 (Homo sapiens, UniProt P33261).
T2 construct: using pooled human liver microsomes; tissue BD Gentest Co. H161; host or cells: pooled human liver microsomes
Kind of data set: CYP2C19 S-mephenytoin 4'-hydroxylation inhibition in pooled human liver microsomes. The class given is in vitro ADME. Conditions: for IC50: 100 μM S-mephenytoin, mean ± SD, n = 3. The method, then: as §1
All 7 metabolites produced from the cocktail of CYP isoform-specific substrates were simultaneously determined by LC/MS/MS [25]. The system consisted of a tandem quadrupole mass spectrometer (TSQ Quantum Access, ThermoFisher Scientific, San Jose, CA, USA) coupled with a Nanospace SI-2 LC system. […] Quantification was performed by selected reaction monitoring (SRM) of the [M+H]^+ ion and the related product ion for each metabolite. […]
Reactions were initiated by addition of NADPH at 37 °C and stopped after 15 min by placement of the incubation tubes on ice and addition of ice-cold methanol (100 μL) containing an internal standard (2.0 μg/mL ^13C6-4-hydroxydiclofenac for diclofenac, 0.5 μg/mL d3-4-hydroxymephenytoin for mephenytoin, or 0.5 μg/mL d9-1-hydroxy-bufuralol for bufuralol). The incubation mixtures were centrifuged at 13,000 × g for 5 min, and aliquots (5 μL) of the supernatants were analyzed by LC/MS/MS. […] Aliquots (5 μL) were analyzed by LC/MS/MS. […]
A general note: Liver microsomes are a subcellular fraction often used to study metabolism.

T2 sequence (P33261 whole entry): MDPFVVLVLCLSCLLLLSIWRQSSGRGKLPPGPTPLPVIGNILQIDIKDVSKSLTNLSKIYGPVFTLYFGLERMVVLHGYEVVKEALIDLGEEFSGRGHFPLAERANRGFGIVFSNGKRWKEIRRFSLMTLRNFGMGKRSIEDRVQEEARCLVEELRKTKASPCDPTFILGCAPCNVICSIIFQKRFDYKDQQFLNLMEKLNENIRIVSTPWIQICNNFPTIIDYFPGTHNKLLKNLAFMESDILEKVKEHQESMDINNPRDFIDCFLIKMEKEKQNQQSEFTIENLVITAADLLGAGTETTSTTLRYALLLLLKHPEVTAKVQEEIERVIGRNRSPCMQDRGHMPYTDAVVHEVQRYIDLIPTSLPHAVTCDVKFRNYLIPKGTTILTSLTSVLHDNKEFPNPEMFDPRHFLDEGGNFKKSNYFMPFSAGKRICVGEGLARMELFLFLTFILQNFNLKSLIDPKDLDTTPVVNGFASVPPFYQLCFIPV

For the compound `COc1cc2c(cc1OC)C1C(C)c3ccc(OC)c(OC)c3CN1CC2` (stereo not shown) [Corydaline, 2,3,9,10-tetramethoxy-13-methyl-5,8,13,13a-tetrahydro-6H-isoquino[3,2-a]isoquinoline], the figures for the “IC50 no preincubation, CYP2C8 amodiaquine N-deethylation” value against CYP2C8 and on CYP2C8 (listed as corydaline) were “negligible inhibition” and “No inhibition **”, respectively. For the same compound, the “IC50 with preincubation, CYP2C8 amodiaquine N-deethylation” value against CYP2C8 (pre-incubated 30 min with NADPH) is “No inhibition **”. Besides, the “inhibition mode, CYP2C19 S-mephenytoin 4'-hydroxylation” value against CYP2C19 (Lineweaver, Dixon and secondary reciprocal plots) is “competitive”. Besides, the Ki on CYP2C19 (human liver microsomes, 10-40 μM S-mephenytoin) amounted to 1.7 ± 0.5 µM. Moreover, the IC50 on CYP2C19 (pooled human liver microsomes (H161), read-out: IC50 no preincubation, CYP2C19 S-mephenytoin 4'-hydroxylation) worked out at 11.7 ± 1.4 µM; on CYP2C19 (pre-incubated 30 min with NADPH, read-out: IC50 with preincubation, CYP2C19 S-mephenytoin 4'-hydroxylation), 19.2 ± 1.8 µM.
